Measured values as given in patent US20120107323A1, “KINASE PROTEIN BINDING INHIBITORS” (University of Florida, priority 2009, published 2012).

Tests used:
[1] = tested on: MCF10A cells; experiment: Cell viability (MTT), MCF10A; assay type: cell-based; conditions: Homo sapiens, MCF-10A, 72 hours, read-out: IC50 of INT2-31, cell viability
Protocol: (§1) Cell viability (MTT) and CFSE Proliferation assay: Cells were plated in 96-well plates and let adhere overnight. After cell treatment, cell viability was measured by 3-(4,5-dimethylthiazol-2-yl)-2,5-diphenyl tetrazolium bromide (MTT) assay (CellTiter 96® Aqueous, Promega, Madison, Wis.).
(§2) Cell viability and detachment assays: After cells were treated with siRNA transfection, cell viability was measured by 3-(4,5-dimethylthiazol2-yl)-2,5-diphenyl tetrazolium bromide (MTT) assay (CellTiter 96® AQueous, Promega, Madison, Wis.). Briefly, 20 μl of the tetrazolium compound was added to each well. The cells were then incubated at 37° C. for 1 h. The plate was read at 490 nm with a plate reader to determine the viability. In detachment assays, detached and attached cells were harvested separately and counted in a hemocytometer. The percentage of detachment was calculated by dividing the number of detached cells by the total number of cells. Apoptosis assays: After treatment, attached and detached cells were collected, counted and prepared for terminal uridine deoxynucleotidyl transferase (TUNEL) assay by utilizing an APO-BRDU kit (BD Pharmingen, San Diego, Calif.) according to the manufacturer's instructions. Stained cells were analyzed with a fluorescence-activated cell sorting-Calibur flow cytometer (BD Biosciences). […] Apoptotic cells were also analyzed by Hoechst staining. […]

[2] = tested on: Miapaca-2 pancreatic cancer cells; experiment: Cell viability (MTT), Miapaca-2; assay type: cell-based
Protocol: as §1, §2

[3] = tested on: IGF-1R+/+ and −/− MEFs; experiment: MTT assay on IGF-1R wildtype and null fibroblasts; assay type: cell-based, mouse
Protocol: as §1
Cell proliferation assay: Cell proliferation assay (Promega) using CellTiter 96 aqueous one solution was performed by adding a small amount of the One Solution Reagent directly to culture wells, incubating for 1-4 hours and then recording absorbance at 490 nm with a spectrophotometric plate reader. The quantity of formazan product as measured by the amount of 490 nm absorbance was directly proportional to the number of living cells in culture.
(§3) Cell viability and detachment assays: After cells were treated with siRNA transfection, cell viability was measured by 3-(4,5-dimethylthiazol2-yl)-2,5-diphenyl tetrazolium bromide (MTT) assay (CellTiter 96® AQueous, Promega, Madison, Wis.). Briefly, 20 μl of the tetrazolium compound was added to each well. The cells were then incubated at 37° C. for 1 h. The plate was read at 490 nm with a plate reader to determine the viability. In detachment assays, detached and attached cells were harvested separately and counted in a hemocytometer. The percentage of detachment was calculated by dividing the number of detached cells by the total number of cells. Apoptosis assays: After treatment, attached and detached cells were collected, counted and prepared for terminal uridine deoxynucleotidyl transferase (TUNEL) assay by utilizing an APO-BRDU kit (BD Pharmingen, San Diego, Calif.) according to the manufacturer's instructions. Stained cells were analyzed with a fluorescence-activated cell sorting-Calibur flow cytometer (BD Biosciences). Calculation of the percentage of apoptotic cells in the sample was completed with CellQuest software (BD Biosciences). Apoptotic cells were also analyzed by Hoechst staining. Hoechst 33342 ([…]) was added to the fixed cells and the specimens were mounted on glass coverslips. The slides were viewed under the Zeiss microscope for apoptotic nuclei. The percent of apoptotic cells was calculated as the ratio of apoptotic cells to total number of cells.

[4] = tested on: BxPC3 pancreatic cancer cells; experiment: Cell viability (MTT), BxPC3; assay type: cell-based; conditions: Homo sapiens, BXPC-3; BxPC3, 72 hours; read-out: IC50 of INT2-31, cell viability
Protocol: as §1, §2

[5] = tested on: C8161 melanoma cells; experiment: Cell viability (MTT), C8161; assay type: cell-based, human
Protocol: as §1, §3
(§4) In addition, the effect of INT2-31 on cell viability of esophageal, pancreatic and breast cancer cell lines was analyzed and the IC50 value for each cell line was determined, as shown in Table 1. […] Similar to melanoma results, INT2-31 inhibits viability more in cancer cells compared to normal cells. Sensitivity of the cells to INT2-31 varied and directly correlated to the FAK and IGF-1R expression level of the cells.
To determine the effect on melanoma cell viability, three human melanoma cell lines were exposed to increasing doses of INT2-31 for 72 h and the results compared to human melanocytes. […] The effects of INT2-31 varied in the three cell lines and was possibly related to constitutive FAK and IGF-1R activation with the least sensitive cell line (SK-MEL-28) having the greatest expression of FAK and IGF-1R.

[6] = tested on: KYSE140 esophageal cancer cells; experiment: Cell viability (MTT), KYSE140; assay type: cell-based
Protocol: as §1, §3, §4

[7] = tested on: C8161 melanoma cells; experiment: Detachment assay, C8161 cells; assay type: cell-based, human; conditions: C8161, 5 μM, 72 h
Protocol: In detachment assays, detached and attached cells were harvested separately and counted in a hemocytometer. The percentage of detachment was calculated by dividing the number of detached cells by the total number of cells.
Detachment assay: Cells were plated with and without compound for 24, 48, and 72 h, and detached and attached cells were counted in a hemocytometer. The percent of detachment was calculated by dividing the number of detached cells by the total number of cells and experiments performed in triplicate. Apoptosis assays: After treatment, attached and detached cells were collected, counted and prepared for terminal uridine deoxynucleotidyl transferase (TUNEL) assay by utilizing an APO-BRDU kit (BD Pharmingen, San Diego, Calif.) and cells analyzed with a FACSCalibur cytometer (Becton Dickinson, San Jose, Calif.). In addition, apoptotic cells were analyzed with Hoechst 33342 staining (1 μg/ml). The percent of apoptotic cells was calculated as the ratio of apoptotic cells to total number of cells.

CSc1ncnc2c1ccn2C1O[C@H](COP(=O)(O)O)[C@@H](O)[C@H]1O (stereo partly drawn) [INT2-31, 4-(Methylthio)-7-(5-O-phosphono-D-ribofuranosyl)-{7H-Pyrrolo[2,3-d]pyrimidine}]
IC50 [1]: 100 µM
IC50 ([2]; Homo sapiens, MIA PaCa-2, Miapaca-2, 72 hours, read-out: IC50 of INT2-31, cell viability): 4.73 µM
cell viability (in words) ([2]; MiaPaCa-2, 72 hours): inhibits the cell viability
proliferation of IGF-1R+/+ fibroblast cells ([3]; 0.05 μM, 72-hour treatment): reduced the proliferation
proliferation of IGF-1R−/− cells ([3]; 0.05 μM, 72-hour treatment): no effect
effect on IGF-1R wildtype compared to null fibroblasts ([3]; MTT, p<0.05): significantly less sensitive
IC50 [4]: 45.6 µM
cell viability (in words) ([5]; C8161, MTT): inhibited cell viability in a dose-dependent manner
IC50 ([5]; Homo sapiens, C8161, 72 hours, read-out: IC50 of INT2-31, cell viability): 0.5 µM
sensitivity of C8161 cells expressing FAK shRNA compared to parental and mock transfected cells ([5]; MTT, FAK shRNA1 knockdown): significantly less sensitive
IC50 ([6]; Homo sapiens, KYSE-140, KYSE140, 72 hours, read-out: IC50 of INT2-31, cell viability): 2.5 µM
effect of combination with 5-FU on cell viability ([6]; KYSE 140, 0.5 and 1 μM INT2-31): synergistic effects
sensitivity of cells to single-agent treatment ([6]; KYSE 140, 72 hours): sensitive
cells detached from the plate [7]: 7%
